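Interpolation was linear, between the two tested concentrations surrounding the appropriate level; five concentrations were tested over 48 hours in 96-well plates. GI50: concentration for 50% inhibition of growth.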 Activity calls are given as the source filed them. Cut-off read from the data, not from the text of the source: active = GI50 up to about 1.1 µM and inactive = higher.
Experiments:
Experiment in all cases: NCI tumour cell line growth inhibition, 48 h
786-0 = system: 786-0
A498 = system: A498
A549 = system: A549
ACHN = system: ACHN
BT-549 = system: BT-549
CAKI-1 = system: CAKI-1
CCRF-CEM = system: CCRF-CEM
COLO 205 = system: COLO 205
DU-145 = system: DU-145
EKVX = system: EKVX
HCC 2998 = system: HCC 2998
HCT-116 = system: HCT-116
HCT-15 = system: HCT-15
HL-60 = system: HL-60
HOP-62 = system: HOP-62
HOP-92 = system: HOP-92
HT-29 = system: HT-29
Hs-578T = system: Hs-578T
IGROV-1 = system: IGROV-1
K562 = system: K562
KM12 = system: KM12
LOX IMVI = system: LOX IMVI
M14 = system: M14
MCF7 = system: MCF7
MDA-MB-231 = system: MDA-MB-231
MDA-MB-435 = system: MDA-MB-435
MDA-N = system: MDA-N
MOLT-4 = system: MOLT-4
Malme-3M = system: Malme-3M
NCI-H226 = system: NCI-H226
NCI-H23 = system: NCI-H23
NCI-H460 = system: NCI-H460
NCI-H522 = system: NCI-H522
NCI/ADR-RES = system: NCI/ADR-RES
OVCAR-3 = system: OVCAR-3
OVCAR-4 = system: OVCAR-4
OVCAR-5 = system: OVCAR-5
OVCAR-8 = system: OVCAR-8
PC-3 = system: PC-3
RPMI-8226 = system: RPMI-8226
RXF 393 = system: RXF 393
SF-268 = system: SF-268
SF-295 = system: SF-295
SF-539 = system: SF-539
SK-MEL-28 = system: SK-MEL-28
SK-MEL-2 = system: SK-MEL-2
SK-MEL-5 = system: SK-MEL-5
SK-OV-3 = system: SK-OV-3
SN12C = system: SN12C
SNB-19 = system: SNB-19
SNB-75 = system: SNB-75
SR = system: SR
SW-620 = system: SW-620
T47D = system: T47D
TK-10 = system: TK-10
U-251 = system: U-251
UACC-257 = system: UACC-257
UACC-62 = system: UACC-62
UO-31 = system: UO-31

Q: CC(C)Cn1cnc2c(Cl)nc3ccccc3c21 was tested. Which GI50 (786-0) did it give?
A: 80.2 µM (inactive)

Q: And the GI50 (A498)?
A: 33.9 µM (inactive)

Q: And the GI50 (A549)?
A: 59.4 µM (inactive)

Q: What about the GI50 (ACHN) of the same molecule?
A: 30.2 µM (inactive)

Q: What about the GI50 (BT-549) of the same molecule?
A: 51.5 µM (inactive)

Q: What about the GI50 (CAKI-1) of the same molecule?
A: 45.8 µM (inactive)

Q: And the GI50 (CCRF-CEM)?
A: 53.2 µM (inactive)

Q: What about the GI50 (COLO 205) of the same molecule?
A: 33.7 µM (inactive)

Q: What about the GI50 (DU-145) of the same molecule?
A: 73.8 µM (inactive)

Q: And the GI50 (EKVX)?
A: 16.6 µM (inactive)

Q: What about the GI50 (HCC 2998) of the same molecule?
A: 73.3 µM (inactive)

Q: What about the GI50 (HCT-116) of the same molecule?
A: 34.4 µM (inactive)

Q: What about the GI50 (HCT-15) of the same molecule?
A: 53.3 µM

Q: And the GI50 (HL-60)?
A: 26.7 µM (inactive)

Q: What about the GI50 (HOP-62) of the same molecule?
A: > 100 µM (inactive)

Q: What about the GI50 (HOP-92) of the same molecule?
A: 21.8 µM (inactive)

Q: And the GI50 (HT-29)?
A: 46 µM (inactive)

Q: What about the GI50 (Hs-578T) of the same molecule?
A: 27.7 µM (inactive)

Q: What about the GI50 (IGROV-1) of the same molecule?
A: 31.9 µM (inactive)

Q: And the GI50 (K562)?
A: 38.4 µM (inactive)

Q: What about the GI50 (KM12) of the same molecule?
A: 37.8 µM (inactive)

Q: And the GI50 (LOX IMVI)?
A: 35.5 µM (inactive)

Q: What about the GI50 (M14) of the same molecule?
A: > 100 µM (inactive)

Q: What about the GI50 (MCF7) of the same molecule?
A: 47.9 µM (inactive)

Q: What about the GI50 (MDA-MB-231) of the same molecule?
A: 41.5 µM (inactive)

Q: And the GI50 (MDA-MB-435)?
A: 53.2 µM (inactive)

Q: What about the GI50 (MDA-N) of the same molecule?
A: 68.2 µM (inactive)

Q: What about the GI50 (MOLT-4) of the same molecule?
A: 34.3 µM (inactive)

Q: And the GI50 (Malme-3M)?
A: > 100 µM (inactive)

Q: And the GI50 (NCI-H226)?
A: 40 µM (inactive)

Q: What about the GI50 (NCI-H23) of the same molecule?
A: 59.3 µM (inactive)

Q: And the GI50 (NCI-H460)?
A: 54.2 µM (inactive)

Q: And the GI50 (NCI-H522)?
A: 50.9 µM (inactive)

Q: And the GI50 (NCI/ADR-RES)?
A: 61.2 µM (inactive)

Q: What about the GI50 (OVCAR-3) of the same molecule?
A: 41.3 µM (inactive)

Q: And the GI50 (OVCAR-4)?
A: 48.3 µM (inactive)

Q: And the GI50 (OVCAR-5)?
A: 54.7 µM (inactive)

Q: And the GI50 (OVCAR-8)?
A: 58.9 µM (inactive)

Q: And the GI50 (PC-3)?
A: 34.4 µM (inactive)

Q: And the GI50 (RPMI-8226)?
A: 42.9 µM (inactive)

Q: What about the GI50 (RXF 393) of the same molecule?
A: 51.8 µM (inactive)

Q: What about the GI50 (SF-268) of the same molecule?
A: 57.3 µM (inactive)

Q: And the GI50 (SF-295)?
A: 72.6 µM (inactive)

Q: What about the GI50 (SF-539) of the same molecule?
A: 46.3 µM (inactive)

Q: What about the GI50 (SK-MEL-28) of the same molecule?
A: > 100 µM (inactive)

Q: What about the GI50 (SK-MEL-2) of the same molecule?
A: > 100 µM (inactive)

Q: What about the GI50 (SK-MEL-5) of the same molecule?
A: 12.2 µM (inactive)

Q: What about the GI50 (SK-OV-3) of the same molecule?
A: > 100 µM (inactive)

Q: What about the GI50 (SN12C) of the same molecule?
A: 70.6 µM (inactive)

Q: What about the GI50 (SNB-19) of the same molecule?
A: > 100 µM (inactive)

Q: What about the GI50 (SNB-75) of the same molecule?
A: 18.7 µM (inactive)

Q: What about the GI50 (SR) of the same molecule?
A: 25.6 µM (inactive)

Q: And the GI50 (SW-620)?
A: 47.3 µM (inactive)

Q: And the GI50 (T47D)?
A: 77.1 µM (inactive)

Q: What about the GI50 (TK-10) of the same molecule?
A: 53.6 µM (inactive)

Q: And the GI50 (U-251)?
A: 65.9 µM (inactive)

Q: And the GI50 (UACC-257)?
A: > 100 µM (inactive)

Q: And the GI50 (UACC-62)?
A: 40.9 µM (inactive)

Q: And the GI50 (UO-31)?
A: 18.5 µM (inactive)

— ChEMBL document CHEMBL1201862, “PubChem BioAssay data set” (2004)
